Source: US8029764B2, “Methods for detection of colorectal cancer” (The Johns Hopkins University, priority 2001, dated 2011)

System: colorectal tissue transcripts
Assay: SAGE of normal, adenoma and cancer colorectal tissue (transcript tag counts)
Design: species or system human
Source text: In an effort to identify potential molecular markers of early colorectal tumors, we have here analyzed gene expression in benign and malignant colorectal tumors in an unbiased and comprehensive fashion. We used SAGE to analyze global gene expression in normal, benign and malignant colorectal tissue. SAGE is a gene expression profiling method that associates individual mRNA transcripts with 15-base tags derived from specific positions near their 3′ termini (3). The abundance of each tag provides a quantitative measure of the transcript level present within the mRNA population studied. SAGE is not dependent on pre-existing databases of expressed genes, and therefore provides an unbiased view of gene expression profiles. For the current study, SAGE libraries derived from two samples of normal colonic epithelium, two colorectal adenomas, and two colorectal cancers were analyzed.
SAGE. For the initial SAGE^3 of benign tumors, fresh adenomas were obtained from surgical specimens derived from FAP patients. Adenomas from FAP patients were employed because of the ready availability of small lesions and the certainty of inactivation of the APC pathway which initiates the formation of the majority of sporadic tumors. After histopathological verification of the neoplastic nature of the lesion (>70% neoplastic cells), total RNA was isolated by solubilizing the tissue in RNAgents Lysis Buffer (Promega, Madison, Wis.) followed by ultracentrifugation over a cesium chloride gradient. mRNA selection was performed from the purified total RNA using oligo(dT) cellulose (Life Technologies, Gaithersburg, Md.). […] Tags were extracted from the raw sequence data and, after excluding repeated ditags, linker sequences, and tags from the polyrnorphic Major Histocompatibility loci, the resulting tag libraries were compared and statistical analysis performed using SAGE software, version 4.0. Data from the libraries are publicly available at the Uniform Resource Locator (URL) address for the http file type found on the www host server that has a domain name of ncbi.nlm.nih.gov, and a path to the directory SAGE, and detailed SAGE protocols are available at the Uniform Resource Locator (URL) address for the http file type found on the www host server that has a domain name of sagenet.org, and file name of sage_protocol.htn.

[1] = normal colorectal tissue library 1
[2] = normal colorectal tissue library 2

Sequence	AD1 (SAGE tag count) (SAGE library AD1)	AD2 (SAGE tag count) (SAGE library AD2)	CA1 (SAGE tag count) (SAGE library CA1)	CA2 (SAGE tag count) (SAGE library CA2)	NC1 (SAGE tag count) (SAGE library NC1)	NC2 (SAGE tag count) (SAGE library NC2)	AD1 (SAGE tag count) (adenoma library 1)	AD2 (SAGE tag count) (adenoma library 2)	CA1 (SAGE tag count) (cancer library 1)	CA2 (SAGE tag count) (cancer library 2)	NC1 (SAGE tag count) [1]	NC2 (SAGE tag count) [2]
CCTCCAGTAC (chemistry not fully specified)	2	3	2	4	20	8	–	–	–	–	–	–
TCACCGGTCA (chemistry not fully specified)	–	–	–	–	–	–	10	10	5	6	118	75
GATGACCCCC (chemistry not fully specified)	4	3	3	3	42	49	–	–	–	–	–	–
CGAGGGGCCA (chemistry not fully specified)	18	18	12	32	110	47	–	–	–	–	–	–
GTCCTGAACA (chemistry not fully specified)	0	0	0	0	7	3	–	–	–	–	–	–
TATGATGAGC (chemistry not fully specified)	–	–	–	–	–	–	2	2	1	5	13	21
TACGGTGTGG (chemistry not fully specified)	–	–	–	–	–	–	2	2	1	0	7	13
AGCAGGAGCA (chemistry not fully specified)	6	3	7	6	50	14	–	–	–	–	–	–
GCCAGGTTGC (chemistry not fully specified)	1	1	1	1	14	5	–	–	–	–	–	–
CAAATAAAAG (chemistry not fully specified)	2	0	1	1	9	12	–	–	–	–	–	–
GCTGGCACAT (chemistry not fully specified)	1	0	6	0	15	14	–	–	–	–	–	–
TGAGTGACAG (chemistry not fully specified)	–	–	–	–	–	–	0	6	3	7	9	68
CCATTCCACT (chemistry not fully specified)	2	0	0	0	13	1	–	–	–	–	–	–
CCCCCGAAGC (chemistry not fully specified)	3	15	4	8	25	27	–	–	–	–	–	–
CTGAACCTCC (chemistry not fully specified)	2	0	0	0	5	15	–	–	–	–	–	–
ATGTGCGTGG (chemistry not fully specified)	11	3	7	7	38	8	–	–	–	–	–	–
GCCCAGGTCA (chemistry not fully specified)	136	128	58	22	519	447	–	–	–	–	–	–

Sequence	AD1 (SAGE tag count) (SAGE library AD1)	AD2 (SAGE tag count) (SAGE library AD2)	CA1 (SAGE tag count) (SAGE library CA1)	CA2 (SAGE tag count) (SAGE library CA2)	NC1 (SAGE tag count) (SAGE library NC1)	NC2 (SAGE tag count) (SAGE library NC2)	AD1 (SAGE tag count) (adenoma library 1)	AD2 (SAGE tag count) (adenoma library 2)	CA1 (SAGE tag count) (cancer library 1)	CA2 (SAGE tag count) (cancer library 2)	NC1 (SAGE tag count) [1]	NC2 (SAGE tag count) [2]
GCCGACCAGG (chemistry not fully specified)	15	8	19	9	46	47	–	–	–	–	–	–
GTGGTTCACG (chemistry not fully specified)	0	0	0	0	4	5	0	0	0	0	4	5
TACTCGGCCA (chemistry not fully specified)	–	–	–	–	–	–	0	0	1	0	10	5
TGACTAATTG (chemistry not fully specified)	–	–	–	–	–	–	2	0	0	3	7	9
GGCTGCCTGC (chemistry not fully specified)	4	3	5	2	13	11	–	–	–	–	–	–
CGTGGGTGGG (chemistry not fully specified)	1	0	0	1	1	10	–	–	–	–	–	–
TAGGATGGGG (chemistry not fully specified)	–	–	–	–	–	–	4	7	6	1	24	30
CTTACAAGCA (chemistry not fully specified)	2	3	4	3	21	13	–	–	–	–	–	–
GTCATCACCA (chemistry not fully specified; the letters are possibly those of the target site)	0	0	0	0	35	22	–	–	–	–	–	–
CCTGTCTGCC (chemistry not fully specified)	0	1	1	1	14	22	–	–	–	–	–	–
GCCAGACACC (chemistry not fully specified)	3	4	1	2	19	9	–	–	–	–	–	–
ACCTGGGGAG (chemistry not fully specified)	1	3	4	3	35	11	–	–	–	–	–	–
TACTGTGGAT (chemistry not fully specified)	–	–	–	–	–	–	0	2	2	1	4	11
ACACCCATCA (chemistry not fully specified)	1	0	5	3	2	27	–	–	–	–	–	–
TTAACCCCTC (chemistry not fully specified)	–	–	–	–	–	–	5	9	1	5	34	14
GAGAGCTCCC (chemistry not fully specified)	3	0	2	1	5	11	–	–	–	–	–	–
